In patent publication US20100267561A1, “HERBICIDAL PYRIDAZINONE DERIVATIVES” (priority 2007, published 2010):

Assays:
Experiment in all cases: Test E pre-/postemergence plant response
Assay type in all cases: in vivo
[1] = system: common chickweed (Stellaria media); settings: Postemergence, scale 0 to 100
Description: (§1) Seeds of plant species selected from bermudagrass (Cynodon dactylon), Surinam grass (Brachiaria decumbens), large crabgrass (Digitaria sanguinalis), green foxtail (Setaria viridis), goosegrass (Eleusine indica), johnsongrass (Sorghum halepense), kochia (Kochia scoparia), pitted morningglory (Ipomoea lacunosa), purple nutsedge (Cyperus rotundus), common ragweed (Ambrosia elation), black mustard (Brassica nigra), guineagrass (Panicum maximum), dallisgrass (Paspalum dilatatum), barnyardgrass (Echinochloa crus-galli), southern (S.) sandbur (Cenchrus echinatus), common sowthistle (Sonchus oleraceous), prickly sida (Sida spinosa), Italian ryegrass (Lolium multiflorum), common purslane (Portulaca oleracea), broadleaf signalgrass (Brachiaria platyphylla), common groundsel (Senecio vulgaris), common chickweed (Stellaria media), Virginia (V.) dayflower (Commelina virginica), tropical (T.) spiderwort (Commelina benghalensis), annual bluegrass (Poa annua), naked crabgrass (Digitaria nuda), itchgrass (Rottboellia cochinchinensis), quackgrass (Elytrigia repens), Canada horseweed (Conyza canadensis), field bindweed (Convolvulus arvensis), spanishneedles (Bidens bipinnata), common mallow (Malva sylvestris) and Russian thistle (Salsola kali) were planted and treated preemergence with test chemicals formulated in a non-phytotoxic solvent mixture which included a surfactant. At the same time, plants selected from these weed species were treated with postemergence applications of some of the test chemicals formulated in the same manner. Plants ranged in height from 2 to 18 cm (1- to 4-leaf stage) for postemergence treatments.
(§2) Treated plants and controls were maintained in a greenhouse for 14 to 21 days, after which time all species were compared to controls and visually evaluated. Plant response ratings, summarized in Table E, are based on a scale of 0 to 100 where 0 is no effect and 100 is complete control. A dash (-) response means no test result.

[2] = system: green foxtail (Setaria viridis); settings: scale 0 to 100
Description: as §1, §2

[3] = system: itchgrass (Rottboellia cochinchinensis); settings: scale 0 to 100
Description: as §1, §2

[4] = system: naked crabgrass (Digitaria nuda); settings: scale 0 to 100
Description: as §1, §2

[5] = system: bermudagrass (Cynodon dactylon); settings: scale 0 to 100
Description: as §1, §2

[6] = system: johnsongrass (Sorghum halepense); settings: scale 0 to 100
Description: as §1, §2

[7] = system: barnyardgrass (Echinochloa crus-galli); settings: scale 0 to 100
Description: as §1, §2

[8] = system: common mallow (Malva sylvestris); settings: Postemergence, scale 0 to 100
Description: as §1, §2

[9] = system: annual bluegrass (Poa annua); settings: scale 0 to 100
Description: as §1, §2

[10] = system: dallisgrass (Paspalum dilatatum); settings: scale 0 to 100
Description: as §1, §2

[11] = system: broadleaf signalgrass (Brachiaria platyphylla); settings: scale 0 to 100
Description: as §1, §2

CCc1cc(-c2ccc(Cl)cc2)nn1-c1c(OS(C)(=O)=O)cnn(C)c1=O [Compound 39]
Plant response rating, Chickweed ([1]; 8 g ai/ha): 0
Plant response rating, Chickweed ([1]; 16 g ai/ha): 0
Plant response rating, Chickweed ([1]; 31 g ai/ha): 0
Plant response rating, Chickweed ([1]; 62 g ai/ha): 0
Plant response rating, Foxtail, Green ([2]; 8 g ai/ha, Preemergence): 75
Plant response rating, Foxtail, Green ([2]; 16 g ai/ha, Preemergence): 90
Plant response rating, Foxtail, Green ([2]; 31 g ai/ha, Preemergence): 98
Plant response rating, Foxtail, Green ([2]; 62 g ai/ha, Preemergence): 100
Plant response rating, Foxtail, Green ([2]; Postemergence, 8 g ai/ha): 60
Plant response rating, Foxtail, Green ([2]; Postemergence, 16 g ai/ha): 70
Plant response rating, Foxtail, Green ([2]; Postemergence, 31 g ai/ha): 75
Plant response rating, Foxtail, Green ([2]; Postemergence, 62 g ai/ha): 95
Plant response rating, Itchgrass ([3]; 16 g ai/ha, Preemergence): 60
Plant response rating, Itchgrass ([3]; 31 g ai/ha, Preemergence): 75
Plant response rating, Itchgrass ([3]; 62 g ai/ha, Preemergence): 80
Plant response rating, Itchgrass ([3]; Postemergence, 8 g ai/ha): 20
Plant response rating, Itchgrass ([3]; Postemergence, 16 g ai/ha): 25
Plant response rating, Itchgrass ([3]; Postemergence, 31 g ai/ha): 40
Plant response rating, Itchgrass ([3]; Postemergence, 62 g ai/ha): 60
Plant response rating, Crabgrass, Naked ([4]; 8 g ai/ha, Preemergence): 75
Plant response rating, Crabgrass, Naked ([4]; 16 g ai/ha, Preemergence): 98
Plant response rating, Crabgrass, Naked ([4]; 31 g ai/ha, Preemergence): 98
Plant response rating, Crabgrass, Naked ([4]; 62 g ai/ha, Preemergence): 100
Plant response rating, Crabgrass, Naked ([4]; Postemergence, 8 g ai/ha): 65
Plant response rating, Crabgrass, Naked ([4]; Postemergence, 16 g ai/ha): 80
Plant response rating, Crabgrass, Naked ([4]; Postemergence, 31 g ai/ha): 80
Plant response rating, Crabgrass, Naked ([4]; Postemergence, 62 g ai/ha): 98
Plant response rating, Bermudagrass ([5]; 8 g ai/ha, Preemergence): 20
Plant response rating, Bermudagrass ([5]; 16 g ai/ha, Preemergence): 75
Plant response rating, Bermudagrass ([5]; 31 g ai/ha, Preemergence): 95
Plant response rating, Bermudagrass ([5]; 62 g ai/ha, Preemergence): 100
Plant response rating, Bermudagrass ([5]; Postemergence, 8 g ai/ha): 35
Plant response rating, Bermudagrass ([5]; Postemergence, 16 g ai/ha): 40
Plant response rating, Bermudagrass ([5]; Postemergence, 31 g ai/ha): 50
Plant response rating, Bermudagrass ([5]; Postemergence, 62 g ai/ha): 65
Plant response rating, Johnsongrass ([6]; 16 g ai/ha, Preemergence): 75
Plant response rating, Johnsongrass ([6]; 31 g ai/ha, Preemergence): 80
Plant response rating, Johnsongrass ([6]; 62 g ai/ha, Preemergence): 98
Plant response rating, Johnsongrass ([6]; Postemergence, 8 g ai/ha): 35
Plant response rating, Johnsongrass ([6]; Postemergence, 16 g ai/ha): 75
Plant response rating, Johnsongrass ([6]; Postemergence, 31 g ai/ha): 75
Plant response rating, Johnsongrass ([6]; Postemergence, 62 g ai/ha): 95
Plant response rating, Barnyardgrass ([7]; 8 g ai/ha, Preemergence): 90
Plant response rating, Barnyardgrass ([7]; 16 g ai/ha, Preemergence): 90
Plant response rating, Barnyardgrass ([7]; 31 g ai/ha, Preemergence): 100
Plant response rating, Barnyardgrass ([7]; 62 g ai/ha, Preemergence): 100
Plant response rating, Barnyardgrass ([7]; Postemergence, 8 g ai/ha): 100
Plant response rating, Barnyardgrass ([7]; Postemergence, 16 g ai/ha): 100
Plant response rating, Barnyardgrass ([7]; Postemergence, 31 g ai/ha): 100
Plant response rating, Barnyardgrass ([7]; Postemergence, 62 g ai/ha): 100
Plant response rating, Mallow ([8]; 8 g ai/ha): 0
Plant response rating, Mallow ([8]; 16 g ai/ha): 0
Plant response rating, Mallow ([8]; 31 g ai/ha): 0
Plant response rating, Mallow ([8]; 62 g ai/ha): 0
Plant response rating, Bluegrass ([9]; 8 g ai/ha, Preemergence): 0
Plant response rating, Bluegrass ([9]; 16 g ai/ha, Preemergence): 0
Plant response rating, Bluegrass ([9]; 31 g ai/ha, Preemergence): 0
Plant response rating, Bluegrass ([9]; 62 g ai/ha, Preemergence): 0
Plant response rating, Bluegrass ([9]; Postemergence, 8 g ai/ha): 0
Plant response rating, Bluegrass ([9]; Postemergence, 16 g ai/ha): 0
Plant response rating, Bluegrass ([9]; Postemergence, 31 g ai/ha): 0
Plant response rating, Bluegrass ([9]; Postemergence, 62 g ai/ha): 0
Plant response rating, Dallisgrass ([10]; 8 g ai/ha, Preemergence): 35
Plant response rating, Dallisgrass ([10]; 16 g ai/ha, Preemergence): 98
Plant response rating, Dallisgrass ([10]; 31 g ai/ha, Preemergence): 98
Plant response rating, Dallisgrass ([10]; 62 g ai/ha, Preemergence): 100
Plant response rating, Dallisgrass ([10]; Postemergence, 8 g ai/ha): 60
Plant response rating, Dallisgrass ([10]; Postemergence, 16 g ai/ha): 70
Plant response rating, Dallisgrass ([10]; Postemergence, 31 g ai/ha): 75
Plant response rating, Dallisgrass ([10]; Postemergence, 62 g ai/ha): 75
Plant response rating, Signalgrass ([11]; 16 g ai/ha, Preemergence): 85
Plant response rating, Signalgrass ([11]; 31 g ai/ha, Preemergence): 95
Plant response rating, Signalgrass ([11]; 62 g ai/ha, Preemergence): 100
Plant response rating, Signalgrass ([11]; Postemergence, 8 g ai/ha): 35
Plant response rating, Signalgrass ([11]; Postemergence, 16 g ai/ha): 95
Plant response rating, Signalgrass ([11]; Postemergence, 31 g ai/ha): 95
Plant response rating, Signalgrass ([11]; Postemergence, 62 g ai/ha): 100
